The record followed here is US10828326B2, “Compositions and methods for treating and preventing venom related poisoning” (priority 2015, dated 2020).

For this assay, the system named is Crotalus atrox venom-enhanced tissue-type plasminogen activator initiated fibrinolysis. Briefly: Thrombelastography of human plasma pretreated with iron and/or CO before venom exposure in the presence of tPA (Example II). The assay is classed as biochemical. The following applies: 100 IU/ml tPA, vs matched samples without or with venom exposure (0.5 μg/ml). The procedure: Two hundred mg of lyophilized, pooled venom was obtained from four western diamondback rattlesnakes (Crotalus atrox) for experimentation. Venom was reconstituted in calcium-free phosphate buffered saline (PBS, Sigma-Aldrich, Saint Louis, Mo., USA) at a concentration of 20 mg/ml, aliquoted, and then stored at −80° C. until experimentation at the University of Arizona.
Pooled normal plasma (George King Bio-Medical, Overland Park, Kans., USA) anticoagulated with sodium citrate was rapidly thawed at 37° C. and used for experimentation. To assess the effects of pretreatment of antifibrinolytic plasma proteins with iron, CO, or both, 1% additions of PBS, ferric chloride (FeCl3, 99.9% pure, Sigma-Aldrich, Saint Louis, Mo., USA) in PBS, or CORM-2 (tricarbonyldichlororuthenium (II) dimer, a CO releasing molecule, Sigma-Aldrich, Saint Louis, Mo., USA) dissolved in dimethyl sulfoxide (DMSO, Sigma-Aldrich, Saint Louis, Mo., USA) were used. […] Plasma was exposed to these various agents for at least 5 min prior to incubations with venom.
The final volume for all subsequently described plasma sample mixtures was 359.4 μl. Sample composition consisted of […] of plasma; 10 μl of tissue factor reagent (0.1% final concentration in distilled water; Diagnostica Stago S.A.S., Asnieres sur Seine, France), 10 μl of tissue type plasminogen activator (tPA, 580 IU/μg, Genentech, Inc., San Francisco, Calif., USA; 100 IU/ml final concentration) and 3.4 μl of PBS or venom (final concentration 0.5-2.0 μg/ml). […] The aforementioned plasma and venom mixtures were placed in a disposable cup in a computer-controlled Thrombelastograph® hemostasis system (Model 5000, Haemoscope Corp., Niles, Ill., USA) and incubated for 5 min at 37° C., with addition of 20 μl of 200 mM CaCl2) as the last step to initiate clotting. Data were collected at 37° C. until clot lysis time (CLT) was observed. The following elastic modulus-based parameters previously described (see, Nielsen V G, Pretorius E. Blood Coagul Fibrinolysis 2014; 25:695-702) were determined: time to maximum rate of thrombus generation (TMRTG): this is the time interval (min) observed prior to maximum speed of clot growth; maximum rate of thrombus generation (MRTG): this is the maximum velocity of clot growth observed (dynes/cm^2/sec); total thrombus generation (TTG, dynes/cm^2), the final viscoelastic resistance observed after clot formation; time to maximum rate of lysis (TMRL, min), maximum rate of lysis (MRL, dynes/cm^2/sec) and CLT (min). Lastly, to assess if venom had thrombolytic properties that were tPA independent, n=4 replicates were performed wherein no tPA was added and data were collected for 3 h.
Data are presented as mean±SD. All conditions unless otherwise indicated were represented by n=8 replicates. This number of replicates reliably provides a statistical power>0.8 for P<0.05 (see, Nielsen V G, Pretorius E. Blood Coagul Fibrinolysis 2014; 25:695-702). A commercially available statistical program was used for two-way analysis of variance (ANOVA) to assess interactions of venom and tPA on coagulation kinetics and interactions of iron and CO on venom-enhanced fibrinolysis (SigmaStat 3.1, Systat Software, Inc., San Jose, Calif., USA). Additional one-way ANOVA followed by Holm-Sidak post hoc analyses were performed to assess differences between the conditions. Graphics depicting viscoelastic data were generated with a commercially available program (OrigenPro 7.5, OrigenLab Corporation, Northampton, Mass., USA).

Setting [1] is: 10 μM ferric chloride or 100 μM CORM-2.

Molecules are shown by their SMILES.

Consider `[Cl][Fe]([Cl])[Cl]` [iron, ferric chloride], for which, under setting [1], the “clot lysis time (CLT)” value was “significantly greater”, the “maximum rate of thrombus generation (MRTG)” value was “greater”, the “time to maximum rate of lysis (TMRL)” value is given as “significantly greater” and the “total thrombus generation (TTG)” value is reported as “greater”. Moreover, where the note is “10 μM ferric chloride”, the “maximum rate of lysis (MRL)” value is reported as “significantly greater” and the “time to maximum rate of thrombus generation (TMRTG)” value was “significantly lesser”.
